# Tests used:
# CDK4/cyclin D3 = molecular target: T1, CDK4/cyclin D3 (Homo sapiens, UniProt P11802); experiment: Human CDK4/cyclin D3 inhibitory activity (QS S Assist CDK4/Cyclin D3_FP Kit, IMAP fluorescence polarization); format: biochemical; details: Human CDK4/cyclin D3 inhibitory activity; read-out: CDK4 Activity symbol
# T1 construct: purchased Carna Biosciences, Inc. QS S Assist CDK4/Cyclin D3_FP Kit
# In short: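 IMAP fluorescence polarization kit: CDK4/cyclin D3 at 12.5-25 ng/well with kit ATP/substrate/metal mix in 20 mM HEPES pH 7.4, 0.01% Tween20, 2 mM DTT, 45 min at room temperature. FP read at 485/535 nm after 30 min binding; IC50 from dose-response fit of percent inhibition versus enzyme and no-enzyme controls.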
# CDK2/cyclin A2 = molecular target: T2, CDK2/cyclin A2 (Homo sapiens, UniProt P24941); experiment: Human CDK2/cyclin A2 inhibitory activity (QS S Assist CDK2/Cyclin A2_FP Kit, IMAP fluorescence polarization); format: biochemical; details: Human CDK2/cyclin A2 inhibitory activity; read-out: CDK2 Activity symbol
# T2 construct: purchased Carna Biosciences, Inc. QS S Assist CDK2/Cyclin A2_FP Kit
# Description: Human CDK2/Cyclin A^2 Inhibitory Activity
# Each compound was analyzed for CDK2/cyclin A2 inhibitory activity with an assay kit (QS S Assist CDK2/Cyclin A2_FP Kit, available from Carna Biosciences, Inc.). This assay kit determines kinase activity on the basis of the IMAP technology by Molecular Devices. Specifically, the kinase activity is determined through quantification of a variation in fluorescent polarization caused by binding of a kinase-phosphorylated fluorescent substance to an IMAP-binding reagent.
# An assay buffer was prepared by 10-fold dilution of the 10× assay buffer attached to the kit with distilled water, and each solution was prepared with the assay buffer. The assay buffer contained 20 mM HEPES (pH 7.4), 0.01% Tween 20, and 2 mM dithiothreitol. A test compound solution was prepared by dilution of the test compound with dimethyl sulfoxide (DMSO) to a concentration 100 times higher than the final concentration and then 25-fold dilution with the assay buffer to a concentration four times higher than the final concentration. An ATP/substrate/Metal solution was prepared by five-fold dilution of the 5×ATP/substrate/Metal solution attached to the kit with the assay buffer. An enzyme solution was prepared by dilution of the CDK2/cyclin A2 attached to the kit with the assay buffer to a concentration twice higher than the final concentration (final concentration of CDK2/cyclin A2: 2.5 ng/well). A detection reagent was prepared by five-fold dilution of 5×IMAP-binding buffer A with distilled water and 400-fold dilution of the IMAP-binding reagent with the diluted buffer.
# The test compound solution (5 μL/well) and the ATP/substrate/Metal solution (5 μL/well) were added to a 384-well plate, and the enzyme solution or the assay buffer (10 μL/well) was added to the plate (total amount of the reaction mixture: 20 μL/well) for initiation of enzymatic reaction. […] The reaction was performed at room temperature for 60 minutes, and the detection reagent (60 μL/well) was then added to the plate, followed by further reaction for 30 minutes at room temperature under light shielding conditions. Subsequently, fluorescent polarization was determined with a microplate reader at an excitation wavelength of 485 nm and an emission wavelength of 535 nm.
# The percent inhibition of enzyme activity was calculated for each test compound (note: enzyme activity=100% in the case of addition of the enzyme solution and addition of DMSO instead of the test compound solution, whereas enzyme activity=0% in the case of addition of the assay buffer instead of the enzyme solution and addition of DMSO instead of the test compound solution). The percent inhibition of enzyme activity was fitted to a dose-response curve, to determine a 50% inhibitory concentration against CDK2/cyclin A2.
# In each table, “+++” corresponds to IC50<10 nM, “++” 10 nM≤IC50<100 nM, and “+” 100 nM≤IC50.
# T1 sequence (P11802 whole entry): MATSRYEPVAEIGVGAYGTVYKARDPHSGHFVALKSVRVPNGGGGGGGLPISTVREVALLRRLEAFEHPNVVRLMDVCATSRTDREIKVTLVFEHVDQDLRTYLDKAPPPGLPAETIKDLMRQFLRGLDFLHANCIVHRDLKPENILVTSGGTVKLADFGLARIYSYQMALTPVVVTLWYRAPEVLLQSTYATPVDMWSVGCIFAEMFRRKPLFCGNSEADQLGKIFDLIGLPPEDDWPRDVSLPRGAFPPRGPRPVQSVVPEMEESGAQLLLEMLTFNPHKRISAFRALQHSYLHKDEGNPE
# T1 sequence (P30281 whole entry partner): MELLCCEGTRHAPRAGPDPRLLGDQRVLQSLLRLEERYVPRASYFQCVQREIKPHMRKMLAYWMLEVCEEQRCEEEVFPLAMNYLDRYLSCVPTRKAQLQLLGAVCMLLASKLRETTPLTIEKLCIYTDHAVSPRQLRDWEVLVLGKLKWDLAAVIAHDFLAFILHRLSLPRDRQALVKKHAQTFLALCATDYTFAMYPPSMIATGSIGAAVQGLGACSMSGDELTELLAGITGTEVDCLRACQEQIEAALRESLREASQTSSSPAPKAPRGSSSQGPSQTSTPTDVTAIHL
Compound,IC50 (CDK4/cyclin D3),IC50 (CDK2/cyclin A2)
CN(c1nc(C(F)F)cc2cnc(Nc3ccc(N4CCNCC4)cn3)nc12)C1CCCC1 [Compound 5],< 0.01 µM,≥ 0.1 µM
OCc1cc2cnc(Nc3ccc(N4CCNCC4)cn3)nc2c(NC2CCCC2)n1 [Compound 6],< 0.01 µM,0.01 to 0.1 µM
CC(C)Nc1nc(C(C)O)cc2cnc(Nc3ccc(N4CCNCC4)cn3)nc12 (stereo not shown) [Compound 9],< 0.01 µM,≥ 0.1 µM
CC(O)c1cc2cnc(Nc3ccc(N4CCNCC4)cn3)nc2c(N(C)C2CCCC2)n1 (stereo not shown) [Compound 10],< 0.01 µM,≥ 0.1 µM
CC(O)c1cc2cnc(Nc3ccc(N4CCNCC4)cn3)nc2c(N(C)C2CCOCC2)n1 (stereo not shown) [Compound 11],0.01 to 0.1 µM,≥ 0.1 µM
CC(O)c1cc2cnc(Nc3ccc(N4CCNCC4)cn3)nc2c(NC2CCOCC2)n1 (stereo not shown) [Compound 12],< 0.01 µM,≥ 0.1 µM
CC(C)(C)Nc1nc(C(F)F)cc2cnc(Nc3ccc(N4CCNCC4)cn3)nc12 [Compound 13],< 0.01 µM,0.01 to 0.1 µM
CC(C)Nc1nc([C@H](C)O)cc2cnc(Nc3ccc(N4CCNCC4)cn3)nc12 [Compound 17],< 0.01 µM,≥ 0.1 µM
CNc1nc(C(F)F)cc2cnc(Nc3ccc(N4CCNCC4)cn3)nc12 [Compound 19],< 0.01 µM,≥ 0.1 µM
CNc1nc(C(C)O)cc2cnc(Nc3ccc(N4CCNCC4)cn3)nc12 (stereo not shown) [Compound 22],0.01 to 0.1 µM,≥ 0.1 µM
CCNc1nc(C(C)O)cc2cnc(Nc3ccc(N4CCNCC4)cn3)nc12 (stereo not shown) [Compound 23],< 0.01 µM,≥ 0.1 µM
CC(O)c1cc2cnc(Nc3ccc(N4CCNCC4)cn3)nc2c(NC(C)(C)C)n1 (stereo not shown) [Compound 24],< 0.01 µM,≥ 0.1 µM
COCC(C)(C)Nc1nc(C(C)O)cc2cnc(Nc3ccc(N4CCNCC4)cn3)nc12 (stereo not shown) [Compound 29],< 0.01 µM,≥ 0.1 µM
COCC(C)Nc1nc(C(F)F)cc2cnc(Nc3ccc(N4CCNCC4)cn3)nc12 (stereo not shown) [Compound 30],< 0.01 µM,0.01 to 0.1 µM
COCC(C)(C)Nc1nc(C(F)F)cc2cnc(Nc3ccc(N4CCNCC4)cn3)nc12 [Compound 31],< 0.01 µM,≥ 0.1 µM
CC(O)c1cc2cnc(Nc3ccc(N4CCNCC4)cn3)nc2c(Nc2cn[nH]c2)n1 (stereo not shown) [Compound 32],< 0.01 µM,≥ 0.1 µM
FC(F)c1cc2cnc(Nc3ccc(N4CCNCC4)cn3)nc2c(NC2COC2)n1 [Compound 33],≥ 0.1 µM,≥ 0.1 µM

Compound,IC50 (CDK4/cyclin D3),IC50 (CDK2/cyclin A2)
CC(=O)c1cc2cnc(Nc3ccc(N4CCNCC4)cn3)nc2c(NC(C)C)n1 [Compound 35],< 0.01 µM,≥ 0.1 µM
CO[C@@H](C)c1cc2cnc(Nc3ccc(N4CCNCC4)cn3)nc2c(NC(C)C)n1 [Compound 38],< 0.01 µM,≥ 0.1 µM
CO[C@H](C)c1cc2cnc(Nc3ccc(N4CCNCC4)cn3)nc2c(NC(C)C)n1 [Compound 39],< 0.01 µM,≥ 0.1 µM
CC(O)c1cc2cnc(Nc3ccc(N4CCNCC4)cn3)nc2c(NCC(F)(F)F)n1 (stereo not shown) [Compound 40],< 0.01 µM,≥ 0.1 µM
CC(CO)Nc1nc(C(C)O)cc2cnc(Nc3ccc(N4CCNCC4)cn3)nc12 (stereo not shown) [Compound 41],< 0.01 µM,≥ 0.1 µM
CC(C)Nc1nc(C(F)F)cc2cnc(Nc3ccc(N4CCN(C)CC4)cn3)nc12 [Compound 42],< 0.01 µM,0.01 to 0.1 µM
CC(C)Nc1nc(C(F)F)cc2cnc(Nc3ccc(N4CCOCC4)cn3)nc12 [Compound 43],< 0.01 µM,0.01 to 0.1 µM
COCc1cc2cnc(Nc3ccc(N4CCNCC4)cn3)nc2c(NC(C)C)n1 [Compound 44],< 0.01 µM,≥ 0.1 µM
CC(O)c1cc2cnc(Nc3ccc(N4CCNCC4)cn3)nc2c(NC(C)(C)CO)n1 (stereo not shown) [Compound 45],< 0.01 µM,≥ 0.1 µM
CC(C)Nc1nc(C(F)F)cc2cnc(Nc3ccc(N4CCNCC4)cn3)nc12 [Compound 46],< 0.01 µM,0.01 to 0.1 µM
CC(C)Nc1nc(C(F)F)cc2cnc(Nc3ccc(CN4CCNCC4)cn3)nc12 [Compound 47],< 0.01 µM,0.01 to 0.1 µM
CC(O)c1cc2cnc(Nc3ccc(N4CCNCC4)cn3)nc2c(NC2CCC2)n1 (stereo not shown) [Compound 48],< 0.01 µM,≥ 0.1 µM
CC(C)Nc1nc(C(F)F)cc2cnc(Nc3ccc(N4CCN(CCO)CC4)cn3)nc12 [Compound 49],< 0.01 µM,0.01 to 0.1 µM
CC(C)Nc1nc(C(F)F)cc2cnc(Nc3ccc(N4CCC(O)CC4)cn3)nc12 [Compound 50],< 0.01 µM,0.01 to 0.1 µM
CC(C)Nc1nc(C(F)F)cc2cnc(Nc3ccc(N4CCC(CCCO)CC4)cn3)nc12 [Compound 51],0.01 to 0.1 µM,≥ 0.1 µM
CC(C)Nc1nc(C(F)F)cc2cnc(Nc3ccc(N4CCC(O)C4)cn3)nc12 (stereo not shown) [Compound 53],< 0.01 µM,0.01 to 0.1 µM

# Further lines, results first:
IC50 (CDK4/cyclin D3),IC50 (CDK2/cyclin A2),Compound
< 0.01 µM,0.01 to 0.1 µM,FC(F)c1cc2cnc(Nc3ccc(N4CCNCC4)cn3)nc2c(NC2CCOCC2)n1 [Compound 4]
< 0.01 µM,≥ 0.1 µM,CC(C)Oc1nc(C(F)F)cc2cnc(Nc3ccc(N4CCNCC4)cn3)nc12 [Compound 7]
< 0.01 µM,≥ 0.1 µM,CC(O)c1cc2cnc(Nc3ccc(N4CCNCC4)cn3)nc2c(NC2CCCC2)n1 (stereo not shown) [Compound 8]
< 0.01 µM,≥ 0.1 µM,CC(C)N(C)c1nc(C(F)F)cc2cnc(Nc3ccc(N4CCNCC4)cn3)nc12 [Compound 14]
< 0.01 µM,≥ 0.1 µM,COCCNc1nc(C(F)F)cc2cnc(Nc3ccc(N4CCNCC4)cn3)nc12 [Compound 15]
< 0.01 µM,≥ 0.1 µM,FC(F)c1cc2cnc(Nc3ccc(N4CCNCC4)cn3)nc2c(NC2CC2)n1 [Compound 18]
< 0.01 µM,≥ 0.1 µM,CCNc1nc(C(F)F)cc2cnc(Nc3ccc(N4CCNCC4)cn3)nc12 [Compound 20]
< 0.01 µM,≥ 0.1 µM,CC(O)c1cc2cnc(Nc3ccc(N4CCNCC4)cn3)nc2c(NC2CC2)n1 (stereo not shown) [Compound 21]
< 0.01 µM,≥ 0.1 µM,CC(O)c1cc2cnc(Nc3ccc(N4CCNCC4)cn3)nc2c(Nc2ccccc2)n1 (stereo not shown) [Compound 26]
0.01 to 0.1 µM,≥ 0.1 µM,CC(O)c1cc2cnc(Nc3ccc(N4CCNCC4)cn3)nc2c(Nc2ccn[nH]2)n1 (stereo not shown) [Compound 27]
< 0.01 µM,≥ 0.1 µM,COCC(C)Nc1nc(C(C)O)cc2cnc(Nc3ccc(N4CCNCC4)cn3)nc12 (stereo not shown) [Compound 28]
0.01 to 0.1 µM,≥ 0.1 µM,CC(C)Nc1nc(C(=O)N(C)C)cc2cnc(Nc3ccc(N4CCNCC4)cn3)nc12 [Compound 34]
≥ 0.1 µM,≥ 0.1 µM,CC(O)c1cc2cnc(Nc3ccc(N4CCNCC4)cn3)nc2c(NCC(F)F)n1 (stereo not shown) [Compound 36]
< 0.01 µM,≥ 0.1 µM,COC(C)c1cc2cnc(Nc3ccc(N4CCNCC4)cn3)nc2c(NC(C)C)n1 (stereo not shown) [Compound 37]
< 0.01 µM,0.01 to 0.1 µM,CC(C)Nc1nc(C(F)F)cc2cnc(Nc3ccc(N4CCC(N)C4)cn3)nc12 (stereo not shown) [Compound 52]
< 0.01 µM,≥ 0.1 µM,CC(O)c1cc2cnc(Nc3ccc(N4CCNCC4)cn3)nc2c(NC(C)C(F)(F)F)n1 (stereo not shown) [Compound 54]
< 0.01 µM,0.01 to 0.1 µM,CC(C)Nc1nc(C(F)F)c(F)c2cnc(Nc3ccc(N4CCNCC4)cn3)nc12 [Compound 55]
